Data reported in patent US8465983B1, “Detection and delivery systems utilizing supported lipid bilayers” (priority 2005, dated 2013).

What was measured:
[1] = system: lipid membranes on porous silica beads packed in microcolumn; experiment: Microfluidic study: release of dye from a bead packed microcolumn after TRITON X-100 injection; assay type: biochemical; conditions: 10 μL of 10% TRITON X-100 injected, 5 min no flow
Description: To create a packed microcolumn of lipid coated beads containing fluorescein, 2 μL of silica bead (diameter=20 μm) containing suspension (0.05 mg/μL) was injected into a microfluidic channel by applying vacuum at the outlet port of the microchannel, followed by the injection of 10 μL of fluorescein-entrapped bead (diameter=10 μm) containing suspension (0.05 mg/μL). The bead packed microchannel was mounted onto a vertical translational stage located in the sample holder space of the fluorimeter. Just below the bead segment, the microchannel was irradiated with an Argon ion laser (λ=488 nm, 8-10 mW) excitation. The inlet of the column was connected to a buffer reservoir while the outlet was connected to a vacuum source. As the fluorescence intensity at 520 nm was monitored, several microliters of Tris buffer was passed through the microchannel before the injection of TRITON X-100 detergent. […]
The packed segment was about 2 mm long. The disruption of the membranes on porous silica beads (containing fluorescein dye) by TRITON X-100 detergent was detected by monitoring the release of the dye from the beads, at a point just below the bead segment as indicated in FIG. 7B. […] The microcolumn was irradiated at 488 nm and fluorescence intensity was monitored at 520 nm. […]

[2] = system: EPC lipid bilayer on porous silica beads; experiment: Suspension study: disruption of EPC bilayers on fluorescein-containing porous silica beads, release of dye into supernatant; assay type: biochemical
Description: Lipid coatings on beads were disrupted using 10% TRITON X-100 detergent. Each sample in micro-centrifuge tubes contained 5 mg of lipid bilayer coated, fluorescein entrapped beads in 200 μL of Tris buffer. Samples were centrifuged and 100 μL aliquots of supernatant were mixed with either 100 μL of Tris buffer or 100 μL of 10% TRITON X-100 detergent in separate centrifuge tubes. The fluorescence intensity of each mixture was immediately (time=0) recorded. Each mixture was mixed with its respective bead sample in centrifuge tube and incubated at 25° C. in the dark. After 30 min, samples were centrifuged and fluorescent intensity of the supernatants was measured. Beads were resuspended in their respective supernatants. Fluorescence intensity was again measured at 90 and 150 min.
Experimental procedures were similar to the TRITON X-100 detergent based analysis. For experiments with α-toxin, three different toxin concentrations: 15, 45 and 250 μg/mL were used at 37° C. and 25° C. Beads coated with EPC were used. In the experiments with melittin, 220 μM melittin was used with beads coated with either 100% EPC, 10:90 (molar ratio) mixture of DMPG and EPC or an 80:20 mixture of DMPG and DMPC. All melittin experiments were conducted at 25° C.
Previous suspension studies on disruption of lipid bilayers have been performed with small unilamellar vesicles where disruption of the lipid bilayer membranes was detected by monitoring the unquenching of a highly concentrated, encapsulated dye. In the present work disruption was monitored via release of fluorescein dye from porous beads, by measuring the increase in fluorescence intensity of the supernatant at 520 nm. Beads were first suspended in Tris buffer containing the disruptor. After selected time periods, beads were sedimented by centrifuging and a portion of the supernatant was taken for the measurement. The measured portion was added back to the bead sample to permit continuous monitoring. The scattering effect that was present in vesicle based studies was minimized by measuring only the supernatant after centrifugation of the beads.

TRITON X-100
initial signal (1st peak) less than that observed in suspension studies [1]: ~80% | increase in fluorescence intensity of the supernatant ([2]; 10% TRITON X-100, first 30 min, 25° C.): more than 70 fold | increase in fluorescence intensity (total disruption of bilayers) ([2]; TRITON X-100 added after 150 min exposure to α-toxin): 50 fold
